What all share (assay): NCI anticancer screen, dose series, 48 h
The subject of assay [1] is BT-549.
For assay [2], the system named is MCF7.
In assay [3] the test system is SK-MEL-2.
The subject of assay [4] is U-251.
Assay [5] deals with NCI/ADR-RES.
Assay [6] concerns RXF 393.
Assay [7] has as its system SNB-19.
Assay [8] deals with MDA-MB-435.
Assay [9] concerns UO-31.
In assay [10] the test system is IGROV-1.
Assay [11] concerns SW-620.
Assay [12] has as its system HL-60.
Assay [13] concerns OVCAR-5.
Assay [14] has as its system LOX IMVI.
Assay [15] has as its system SK-MEL-28.
For assay [16], the system named is UACC-62.
Assay [17] has as its system ACHN.
Assay [18] concerns NCI-H226.
The subject of assay [19] is RPMI-8226.
The test system of assay [20] is SF-268.

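Tested at 5 concentrations; 48 h exposure; 96-well plates; endpoints linearly interpolated, else capped at highest concentration. The concentration for 50% growth inhibition is given as GI50.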 Active and inactive are the calls of the source. No stated cut-off is given here; in the data, active = GI50 up to about 1.1 µM and inactive = higher.

As to `CCC1(O)C(=O)OCc2c1cc1n(c2=O)Cc2cc3ccccc3nc2-1` (stereo not given), the GI50 in assay [1] was 0.211 µM (active); in assay [2], 0.0405 µM (active); in [3], 0.575 µM (active); in assay [4], 0.0261 µM (active); in assay [5], 0.0444 µM (active); in assay [6] it was 0.073 µM (active). Also, the GI50 in [7] was 0.0143 µM (active); in assay [8] it was 0.139 µM (active); in assay [9], 0.0235 µM (active); in [10], 0.0635 µM (active); in assay [11], 0.167 µM (active); in assay [12], 0.017 µM (active). Also, the GI50 in assay [13] was 0.347 µM (active); in assay [14], < 0.0152 µM (active); in [15], 0.334 µM (active); in [16] it was 0.0128 µM (active); in assay [17], 0.153 µM (active); in assay [18], 0.277 µM (active). Also, the GI50 was 0.048 µM (active) in assay [19] and < 0.0168 µM (active) in [20].

For `Oc1c(-c2ccccc2)sc2ccccc12`, the GI50 in assay [1] is 28.1 µM (inactive); in assay [2], 33.3 µM (inactive); in assay [3] it was 10.8 µM (inactive); in [4], 29.4 µM (inactive); in assay [5], 34 µM (inactive); in [6], 14.7 µM (inactive). Further, the GI50 in assay [7] is 34.3 µM (inactive); in assay [8] it was 31.6 µM (inactive); in assay [9] it was 24.9 µM (inactive); in assay [10], 27.5 µM (inactive); in assay [11], 48.3 µM (inactive); in assay [12] it was 22.6 µM (inactive). For the same compound, the GI50 in [13] was 27 µM (inactive); in [14], 15.5 µM (inactive); in [15], 68.9 µM (inactive); in assay [16], 49.3 µM (inactive); in assay [17], 24.7 µM (inactive); in assay [18], 16.4 µM (inactive). Besides, the GI50 in [19] was 8.63 µM (inactive); in assay [20], 60.7 µM (inactive).

As to `O=C(O)c1c(-c2nccc3ccccc23)[nH]c(-c2ccccc2)c1S(=O)(=O)O`, the GI50 in [1], in assay [2], in [3], in [4], in [5] and in [6] was > 100 µM (inactive) throughout. Moreover, the GI50 in assay [7] was > 100 µM (inactive); in assay [8], > 100 µM (inactive); in assay [9] it was > 100 µM (inactive); in assay [10], > 100 µM (inactive); in assay [11], > 100 µM (inactive); in [12], 41.8 µM (inactive). The GI50 in assay [13], in assay [14], in assay [15], in assay [16], in [17] and in assay [18] was > 100 µM (inactive) in each case. Also, the GI50 in assay [19] and in assay [20] was > 100 µM (inactive) in each case.

For `O=C1c2ccccc2-[n+]2ccc3c([nH]c4ccccc43)c21` [FASCAPLYSIN CHLORIDE], the GI50 is 2.26 µM (inactive) in assay [1]; 0.184 µM (active) in assay [2]; 0.226 µM (active) in assay [3]; 0.274 µM (active) in assay [4]; 1.21 µM (inactive) in assay [5]; 0.384 µM (active) in assay [6]. Moreover, the GI50 in [7] is 0.615 µM (active); in assay [8], 0.179 µM (active); in assay [9] it was 0.682 µM (active); in assay [10], 0.196 µM (active); in assay [11] it was 0.296 µM (active); in assay [12], 0.404 µM (active). For the same compound, the GI50 in [13] was 0.48 µM (active); in assay [14], 0.245 µM (active); in [15], 0.34 µM (active); in [16], 0.242 µM (active); in [17] it was 0.557 µM (active); in assay [18], 0.964 µM (active). Further, the GI50 in assay [19] was 0.186 µM (active); in assay [20], 0.247 µM (active).

Take `COC(=O)[C@H](C)N(C)C(=O)[C@H](C)N1[C@@H](c2ccccc2)COC1(C)C`: the GI50 in assay [1], in assay [2], in [3], in [4], in [5] and in [6] was > 100 µM (inactive) in each case. The GI50 in assay [7], in assay [8], in assay [9], in [10], in assay [11] and in [12] was > 100 µM (inactive) each time. The GI50 in [13], in assay [14], in assay [15], in assay [16], in assay [17] and in assay [18] was > 100 µM (inactive) throughout. In addition, the GI50 in assay [19] and in assay [20] was > 100 µM (inactive) throughout.

Regarding `O=[N+]([O-])c1cc(Cl)cc2c1nc(NCCO)c1ccccc12`, the GI50 is 15.4 µM (inactive) in assay [1]; 2.28 µM (inactive) in assay [2]; 10.5 µM (inactive) in [3]; 6.64 µM (inactive) in assay [4]; 23.5 µM (inactive) in [5]; 6.46 µM (inactive) in [6]. Besides, the GI50 in assay [7] was 16.1 µM (inactive); in [8], 6.17 µM (inactive); in assay [9] it was 24.1 µM (inactive); in assay [10] it was 15.2 µM (inactive); in [11] it was 4.5 µM (inactive); in assay [12], 3.5 µM (inactive). In addition, the GI50 was 9.18 µM (inactive) in assay [13]; 17.2 µM (inactive) in assay [14]; 39.5 µM (inactive) in assay [15]; 10.3 µM (inactive) in assay [16]; 6.43 µM (inactive) in [17]; 13.5 µM (inactive) in assay [18]. Besides, the results for the GI50 in [19] and in assay [20] were 6.25 µM (inactive) and 23.8 µM (inactive), respectively.

For `O=C(Nc1ccn(C2CCC(CO)O2)c(=O)n1)c1ccccc1` (stereo not given), the GI50 in [1], in assay [2], in assay [3], in [4], in assay [5] and in assay [6] was > 100 µM (inactive) in each case. Further, the GI50 in assay [7], in assay [8], in [9], in [10], in assay [11] and in [12] was > 100 µM (inactive) in each case. The GI50 in assay [13], in assay [14], in assay [15], in assay [16], in [17] and in [18] was > 100 µM (inactive) each time. Besides, the GI50 in [19] and in assay [20] was > 100 µM (inactive) in each case.

Source of the values: ChEMBL document CHEMBL1201862, “PubChem BioAssay data set” (2004).
